Measured values as given in patent publication US12202835B2, “Substituted aromatic ring-linked dioxinoquinazolines and dioxinoquinolines as kinase inhibitors” (BEIJING SCITECH-MQ PHARMACEUTICALS LIMITED, priority 2018, dated 2025).

Target: TRKA kinase (Homo sapiens (Human), UniProt P04629)
Test: Assay of small molecular compounds for inhibiting the activity of TRKA kinase (LANCE TR-FRET)
Type: biochemical
Procedure: The assay of small molecular compounds for inhibiting the activity of TRKA kinase is based on the LANCE TR-FRET technology of Perkin Elmer Inc., and the assay method is as follows: • 1. […] 2.5 μL of the gradient-diluted compounds were taken with a transfer pipette to a 384-well plate. • 3. Addition of enzyme: 5 μL of 2×TRKA kinase solution (with a concentration of 2 nM) was taken with a transfer pipette to the corresponding reaction well of the 384-well plate, mixed well and pre-reacted at room temperature for 5 minutes. • 4. 2.5 μL 4× Ultra ULight-labeled TK Peptide (with a concentration of 400 nM)/ATP (with a concentration of 40 μM) mixture was taken with a transfer pipette to the corresponding reaction well of the 384-well plate. • 5. Negative control: 2.5 μL/well 4× substrate/ATP mixture and 7.5 μL 1× Kinase Assay Buffer were added to the wells of the 384-well plate.
Positive control: 2.5 μL/well 4× substrate/ATP mixture, 2.5 μL/well 1× Kinase Assay Buffer containing 4% DMSO, and 5 μL/well 2×TRKA kinase solution were added to the 384-well plate. The final concentration of DMSO in the reaction system was 1%. • 6. The mixture was mixed well and then centrifuged and reacted at room temperature in dark for 60 min. • 7. Termination of the enzymatic reaction: 5 μL of 4× stop solution was taken with a transfer pipette to the wells of the 384-well plate, mixed and then centrifuged, and reacted at room temperature for 5 min. • 8. Development of the reaction: 5 μL of 4× detection solution was taken with a transfer pipette to the wells of the 384-well plate for color development, and the mixture was mixed and then centrifuged and reacted at room temperature for 60 min. • 9. The 384-well plate was placed into the Envision plate reader and the signal was detected using the appropriate program.

Chain of TRKA kinase (P04629 33-796): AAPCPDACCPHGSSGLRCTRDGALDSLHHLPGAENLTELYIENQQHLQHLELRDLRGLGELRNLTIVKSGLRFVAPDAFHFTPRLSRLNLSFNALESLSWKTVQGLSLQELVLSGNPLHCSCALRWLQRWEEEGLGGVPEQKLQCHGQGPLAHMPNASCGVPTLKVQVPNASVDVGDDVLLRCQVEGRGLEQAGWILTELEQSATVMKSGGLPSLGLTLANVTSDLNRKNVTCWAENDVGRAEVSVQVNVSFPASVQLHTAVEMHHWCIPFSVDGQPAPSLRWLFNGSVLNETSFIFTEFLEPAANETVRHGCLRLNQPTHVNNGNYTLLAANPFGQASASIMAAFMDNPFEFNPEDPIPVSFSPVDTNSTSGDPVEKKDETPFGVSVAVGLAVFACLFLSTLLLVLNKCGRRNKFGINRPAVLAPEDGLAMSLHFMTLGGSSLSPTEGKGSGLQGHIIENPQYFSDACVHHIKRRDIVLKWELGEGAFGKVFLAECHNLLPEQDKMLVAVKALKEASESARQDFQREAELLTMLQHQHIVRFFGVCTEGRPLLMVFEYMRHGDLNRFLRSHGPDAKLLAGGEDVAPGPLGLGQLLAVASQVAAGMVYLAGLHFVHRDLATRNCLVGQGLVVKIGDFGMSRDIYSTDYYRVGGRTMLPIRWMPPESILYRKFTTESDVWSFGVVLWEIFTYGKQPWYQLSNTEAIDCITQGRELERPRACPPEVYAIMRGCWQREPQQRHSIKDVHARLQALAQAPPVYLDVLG

Cn1cc(C(=O)Nc2ccc(Oc3ccnc4ccc5c(c34)OCCO5)c(F)c2)c(=O)n(-c2ccc(F)cc2)c1=O [Example 160, N-(4-((2,3-dihydro-[1,4]dioxino[2,3-f]quinolin-10-yl)oxy)-3-fluorophenyl)-3-(4-fluorophenyl)-1-methyl-2,4-dioxo-1,2,3,4-tetrahydropyrimidine-5-carboxamide]
IC50: 50 to 500 nM

CCn1cc(C(=O)Nc2ccc(Oc3ccnc4ccc5c(c34)OCCO5)c(F)c2)c(=O)n(-c2ccc(F)cc2)c1=O [Example 161, N-(4-((2,3-dihydro-[1,4]dioxino[2,3-f]quinolin-10-yl)oxy)-3-fluorophenyl)-3-(4-fluorophenyl)-1-ethyl-2,4-dioxo-1,2,3,4-tetrahydropyrimidine-5-carboxamide]
IC50: 50 to 500 nM

CCn1cc(C(=O)Nc2ccc(Oc3ccnc4ccc5c(c34)OCCO5)cc2F)c(=O)n(-c2ccc(F)cc2)c1=O [Example 163, N-(4-((2,3-dihydro-[1,4]dioxino[2,3-f]quinolin-10-yl)oxy)-2-fluorophenyl)-3-(4-fluorophenyl)-1-ethyl-2,4-dioxo-1,2,3,4-tetrahydropyrimidine-5-carboxamide]
IC50: 50 to 500 nM

CCOc1ccn(-c2ccc(F)cc2)c(=O)c1C(=O)Nc1ccc(Oc2ccnc3ccc4c(c23)OCCO4)c(F)c1 [Example 168, N-(4-((2,3-dihydro-[1,4]dioxino[2,3-f]quinolin-10-yl)oxy)-3-fluorophenyl)-1-(4-fluorophenyl)-4-ethoxy-2-oxo-1,2-dihydropyridine-3-carboxamide]
IC50: 50 to 500 nM

Cn1cc(C(=O)Nc2cc(F)c(Oc3ccnc4ccc5c(c34)OCCO5)cc2Cl)c(=O)n(-c2ccc(F)cc2)c1=O [Example 173, N-(2-chloro-4-((2,3-dihydro-[1,4]dioxino[2,3-f]quinolin-10-yl)oxy)-5-fluorophenyl)-3-(4-fluorophenyl)-1-methyl-2,4-dioxo-1,2,3,4-tetrahydropyrimidine-5-carboxamide]
IC50: 50 to 500 nM

CCn1cc(C(=O)Nc2cc(F)c(Oc3ccnc4ccc5c(c34)OCCO5)cc2Cl)c(=O)n(-c2ccc(F)cc2)c1=O [Example 174, N-(2-chloro-4-((2,3-dihydro-[1,4]dioxino[2,3-f]quinolin-10-yl)oxy)-5-fluorophenyl)-3-(4-fluorophenyl)-1-ethyl-2,4-dioxo-1,2,3,4-tetrahydropyrimidine-5-carboxamide]
IC50: < 50 nM

CCn1cc(C(=O)Nc2cc(F)c(Oc3ccnc4ccc5c(c34)OCCO5)cc2C)c(=O)n(-c2ccc(F)cc2)c1=O [Example 176, N-(4-((2,3-dihydro-[1,4]dioxino[2,3-f]quinolin-10-yl)oxy)-5-fluoro-2-methylphenyl)-3-(4-fluorophenyl)-1-ethyl-2,4-dioxo-1,2,3,4-tetrahydropyrimidine-5-carboxamide]
IC50: 50 to 500 nM
